Experimental data taken from ChEMBL document CHEMBL1150574, “3-Acetoxyspathulenol, a new aromadendrane-type natural product from the soft Coral Parerythropodium fulvum” (J Nat Prod, 2001).
Calls of active or inactive are those of the source. The calls are words filed in the database; no cut-off is given here.

Key:
Microbotryum violaceum = experiment: Antimicrobial activity against Microbotryum violaceum; assay type: functional, organism-based
Escherichia coli = experiment: Antimicrobial activity against Escherichia coli; assay type: functional, organism-based
Fusarium oxysporum = experiment: Antimicrobial activity against Fusarium oxysporum; assay type: functional, organism-based
Priestia megaterium = experiment: Antimicrobial activity against Bacillus megaterium; assay type: functional, organism-based
[1] = target: Tyrosine-protein kinase Lck (Homo sapiens) (UniProt P06239); experiment: Inhibition of p56 LCK
Chain of Tyrosine-protein kinase Lck (Homo sapiens) (P06239 2-509 limits assumed): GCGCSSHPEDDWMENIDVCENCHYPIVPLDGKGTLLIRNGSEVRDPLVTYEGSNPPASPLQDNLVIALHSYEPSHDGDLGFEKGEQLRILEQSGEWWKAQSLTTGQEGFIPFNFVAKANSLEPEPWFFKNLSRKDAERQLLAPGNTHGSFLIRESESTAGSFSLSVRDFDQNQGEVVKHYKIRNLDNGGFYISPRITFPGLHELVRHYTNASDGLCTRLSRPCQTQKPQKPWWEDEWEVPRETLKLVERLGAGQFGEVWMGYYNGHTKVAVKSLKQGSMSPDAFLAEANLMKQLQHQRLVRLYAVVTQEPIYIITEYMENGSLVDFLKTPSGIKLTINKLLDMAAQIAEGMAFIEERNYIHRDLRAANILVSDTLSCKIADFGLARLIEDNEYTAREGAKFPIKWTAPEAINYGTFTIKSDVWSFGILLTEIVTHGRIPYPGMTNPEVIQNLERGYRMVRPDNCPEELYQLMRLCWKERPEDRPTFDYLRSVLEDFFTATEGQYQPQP

Mycotypha microspora = experiment: Antimicrobial activity against Mycotypha microspora; assay type: functional, organism-based
Artemia = experiment: Toxicity against brine shrimp; assay type: organism-based; settings: in vivo
[2] = system: Human immunodeficiency virus; experiment: Inhibition of HIV reverse transcriptase
[3] = system: Aspergillus pseudoglaucus; experiment: Antimicrobial activity against Eurotium repens; assay type: functional, organism-based
Caenorhabditis elegans = experiment: Nematicide against Caenorhabditis elegans; assay type: functional, organism-based
[Chlorella] fusca = Antimicrobial activity against Chlorella fusca; assay type: functional, organism-based; settings: Scenedesmus fuscus

With C=C1CC[C@@H]2[C@H]([C@H]3[C@H]1C[C@@H](OC(C)=O)[C@@]3(C)O)C2(C)C the Activity (Microbotryum violaceum) was “inactive”, the Activity (Escherichia coli) was “inactive” and the Activity (Fusarium oxysporum) was “inactive”. For the same molecule, the Activity (Priestia megaterium) was “inactive”, the Activity [1] was “inactive” and the Activity (Mycotypha microspora) was “inactive”. For the same molecule, the Activity (Artemia) was “Non-toxic”, the Activity [2] was “inactive” and the Activity [3] was “inactive”. The Activity (Caenorhabditis elegans) was “inactive” and the Activity ([Chlorella] fusca) was “inactive”.
